# Assay results published in patent publication US4218477A, “Primary aminoacylanilides, methods of making the same and use as antiarrhythmic drugs” (priority 1976, dated 1980).
# Like-named read-outs stand apart in the source and are kept apart here.
# Assays:
# [1] = test system: chloroform-induced arrhythmias; conditions: mouse, in vivo
# [2] = test system: chloroform-induced arrhythmias; assay: animal or person; conditions: Mus musculus
# [3] = test system: chloroform induced fibrillation; assay: Protection against chloroform induced fibrillation in mice, subcutaneous, potency relative to lidocaine (Table IV); format: in vivo; conditions: s.c., 20 min, statistical mean (confidence limits)
# Procedure: (§1) The experiments on mice were performed according to a modification of the method described by J. W. Lawson, "Antiarrhythmic activity of some isoquinoline derivatives determined by a rapid screening procedure in the mouse", J. Pharm. Exp. Therap. Vol. 160, pp. 22-31 (1968). This method is based upon the observation that when an unanesthetized, untreated mouse is exposed to chloroform vapor its respiration soon ceases and at that time both electrocardiographic and visual inspection reveal that the cardiac ventricles are fibrillating. If the mouse is treated appropriately with known antiarrhythmic agents prior to exposure to chloroform, the respiratory failure is not accompanied by ventricular fibrillation.
# The procedure used was a modification of the method previously described. The modification involved using a standard time of 20 minutes for each test run and four different doses of the same drug. Route of administration was subcutaneous.
# ventricular arrhythmias [4] = format: in vivo, dogs
# Procedure: Vol. 1, pp. 1318-1328 (1950). […] The electrocardiographic, cardiovascular and other drug effects were monitored.
# Table II summarizes the results of oral administration:
# Dogs #215 and #220 given 50 mg/kg dose at 0 mins and 100 mg/kg dose at 24
# The electrocardiographic, cardiovascular and other drug effects were monitored.
# ventricular arrhythmias [5] = assay: animal or person
# Procedure: Tests on dogs with the compound 2-amino-2',6'-propionoxylidide were conducted according to a modification of the method described by A. S. Harris in "Delayed Development of Ventricular Ectopic Rhythms Following Experimental Coronary Occlusions", Circ. Vol. 1, pp. 1318-1328 (1950). In this method the dogs were anesthetized, the heart was exposed, and the anterior descending branch of the left coronary artery was ligated in two stages. The thorax was closed and the dog was allowed to recover from the anesthesia. […] B. B. Clark and J. R. Cummings, "Arrhythmias Following Experimental Coronary Occlusion and Their Response to Drugs", Annals New York Academy of Sciences, Vol. 65, pp. 543-551 (1956). […] The electrocardiographic, cardiovascular and other drug effects were monitored.
# The dosage schedule was: 1st hr.: 15 mg/kg/hr; 2nd hr.: 30 mg/kg/hr; 3rd hr.: 60 mg/kg/hr. Infusions were stopped at the first sign of toxicity other than emesis.
# The compound 3-amino-2',6'-butyroxylidide was also tested on dogs, according to a modification of the method of Harris as previously described. As in the previously described tests, unanesthetized dogs were supported in canvas slings and were treated either intravenously or orally with doses of 3-amino-2',6'-butyroxylidide. The electrocardiographic, cardiovascular and other drug effects were monitored.
# ventricular fibrillation [6] = assay: Protection against chloroform induced fibrillation in the guinea pig, intraperitoneal (Table V); format: in vivo; conditions: 326 mg/kg i.p., 20 min before chloroform
# Procedure: Guinea pigs (250-350 g) were placed individually into a series of 4000 ml beakers containing cotton and 100 ml of chloroform. After cessation of respiration the animal was removed from the beaker, the thorax was opened and the heart was examined for the presence or absence of ventricular fibrillation. The nature of the cardiac rhythm was confirmed by electrocardiographic recordings.
# A single dose (about 1-5 ml) of each test compound was administered intraperitoneally by a 25 gauge needle twenty minutes before the animals were placed in chloroform.
# pKa = format: physicochemical; conditions: 23; read-out: pkaa^23
# ventricular fibrillation [7] = assay: Protection against chloroform induced ventricular fibrillation in mice, oral (Table I); format: in vivo, female Swiss albino mice (HAM/ICR)
# Procedure: as §1
# mice [8] = assay: Ataxia just before CHCl3 challenge in mice, oral (Table I); format: in vivo, female Swiss albino mice (HAM/ICR)
# Procedure: as §1
# frog sciatic nerve = assay: Local anesthetic effect in vitro on the frog sciatic nerve; conditions: 5 min; 20 mM, after 5 minutes; read-out: block of the action potential of the nerve
# [9] = cited from earlier work
# mice [10] = assay: Acute oral toxicity in mice (24 Hr. mortality); conditions: oral, mice, 24 hr; dose to kill one of a thousand
# mice [11] = conditions: mouse, in vivo, po, 1440 min
# cardiac arrhythmias = conditions: in vivo; cited from earlier work
# [12] = Acute oral toxicity in mice (24 Hr. mortality); conditions: mouse, in vivo, po
# [13] = dose LD0.1, drug given 10 min before CHCl3 challenge
# [14] = dose LD0.1, drug given 20 min before CHCl3 challenge
# [15] = dose LD0.1, drug given 40 min before CHCl3 challenge
# [16] = dose LD0.1, drug given 80 min before CHCl3 challenge
structure (smiles),measurement,setting,value
CCNC(C)C(=O)Nc1c(C)cc(C)cc1C (centres unmarked),incidence of ataxia,[1],100%
same,incidence of convulsions,[1],90%
same,ED50,[2],162 mg/kg
"Cc1cccc(C)c1NC(=O)[C@@H](C)N [2-amino-2',6'-propionoxylidide]",Relative Potency (ED50 test compound/ED50 lidocaine),[3],0.45 (0.26 - 0.78)
"CCc1cccc(CC)c1NC(=O)CN [2-amino-2', 6'-diethylacetanilide, 2-amino-2',6'-diethylacetanilide]",Relative Potency (ED50 test compound/ED50 lidocaine),[3],0.22 (0.13 - 0.36)
"CCc1cccc(CC)c1NC(=O)C(C)N (centres unmarked) [2-amino-2', 6'-diethylpropionanilide, 2-amino-2',6'-diethylpropionanilide]",Relative Potency (ED50 test compound/ED50 lidocaine),[3],0.48 (0.27 -0.73)
"CCc1cccc(C)c1NC(=O)CN [2-amino-2'-ethyl-6'-methyl acetanilide, 2-amino-2'-ethyl-6'-methylacetanilide]",Relative Potency (ED50 test compound/ED50 lidocaine),[3],0.27 (0.14 - 0.40)
"Cc1cccc(C)c1NC(=O)CC(C)N (centres unmarked) [3-amino-2',6'-butyroxylidide]",adverse reactions,"ventricular arrhythmias [4]; dog, in vivo, po",unaccompanied by any discernible adverse reactions
same,suppression of the ventricular arrhythmias,"ventricular arrhythmias [4]; oral doses, dogs",distinct suppression of the ventricular arrhythmias
same,adverse reactions,"ventricular arrhythmias [5]; dog, in vivo, iv",unaccompanied by any discernible adverse reactions
same,suppression of the ventricular arrhythmias,"ventricular arrhythmias [5]; intravenous doses, dogs",distinct suppression of the ventricular arrhythmias
same,toxic side-effects,"ventricular arrhythmias [5]; intravenous, antiarrhythmic doses, dogs (Table VI)",minimal toxic side-effects
same,Toxicity: Convulsions,"ventricular arrhythmias [5]; intravenous, individual dogs",None
same,Toxicity: Deaths,"ventricular arrhythmias [5]; intravenous, individual dogs",None
same,Relative Potency (ED50 test compound/ED50 lidocaine),[3],0.99 (0.60 - 1.9)
same,Percent of Population Protected,ventricular fibrillation [6],100%
"Cc1cc(C)c(NC(=O)CCN)c(C)c1 [3-amino-2', 4', 6'-propionomesidide, 3-amino-2',4',6'-propionomesidide]",pKa,pKa,8.7 to 8.8
"Cc1cccc(C)c1NC(=O)CCN [3-amino-2', 6'-propionoxylidide, 3-amino-2',6'-propionoxylidide]",Relative Potency (ED50 test compound/ED50 lidocaine),[3],0.4 (0.2 - 0.8)
CCc1cccc(C)c1NC(=O)CCN [3-amino-2'-ethyl-6'-methylpropionanilide],Relative Potency (ED50 test compound/ED50 lidocaine),[3],0.29 (0.09 - 0.81)
"Cc1cccc(C)c1NC(=O)[C@H](C)N [(+)-2-amino-2',6'-propionoxylidide]",Relative Potency (ED50 test compound/ED50 lidocaine),[3],0.11 (0.06 - 0.21)
"CCN(CC)CC(=O)Nc1c(C)cccc1C [Lidocaine, 2-diethylamino-2',6'-acetoxylidide]",Proportion of mice protected against fibrillation at LD0.1,ventricular fibrillation [7]; [13],9/10
same,Proportion of mice protected against fibrillation at LD0.1,ventricular fibrillation [7]; [14],10/10
same,Proportion of mice protected against fibrillation at LD0.1,ventricular fibrillation [7]; [15],7/10
same,Proportion of mice protected against fibrillation at LD0.1,ventricular fibrillation [7]; [16],0/10
same,Proportion of mice having ataxia just before CHCl3 challenge,"mice [8]; dose LD0.1, 10 min",0/10
same,Proportion of mice having ataxia just before CHCl3 challenge,"mice [8]; dose LD0.1, 20 min",9/10
same,Proportion of mice having ataxia just before CHCl3 challenge,"mice [8]; dose LD0.1, 40 min",0/10
same,Proportion of mice having ataxia just before CHCl3 challenge,"mice [8]; dose LD0.1, 80 min",0/10
same,Number of dogs showing antiarrhythmic effect,"ventricular arrhythmias [5]; i.v. infusion 15, 30, 60 mg/kg/hr, dogs tested: lidocaine 2, test compound 1, abnormal beats less than 5% of total",2
same,inhibition at 20000 µM,frog sciatic nerve,78%
same,duration of blood levels,[9]; in vivo,fairly short
same,levels of the drug in the blood,[9]; oral,low levels of the drug in the blood
same,oral effectiveness,[9]; oral,not orally effective
same,loss of the drug after oral administration,"[9]; oral, probably due to functions of the liver",pronounced loss of the drug
same,24 Hr. Mortality LD0.1,mice [10],154 mg/kg
CCN(CC)CCNC(=O)c1ccc(N)cc1 [Procainamide],Proportion of mice protected against fibrillation at LD0.1,"ventricular fibrillation [7]; dose LD0.1, drug given 5 min before CHCl3 challenge",0/10
same,Proportion of mice protected against fibrillation at LD0.1,ventricular fibrillation [7]; [13],1/10
same,Proportion of mice protected against fibrillation at LD0.1,ventricular fibrillation [7]; [14],0/10
same,Proportion of mice having ataxia just before CHCl3 challenge,"mice [8]; dose LD0.1, 5 min",0/10
same,Proportion of mice having ataxia just before CHCl3 challenge,"mice [8]; dose LD0.1, 10 min",0/10
same,Proportion of mice having ataxia just before CHCl3 challenge,"mice [8]; dose LD0.1, 20 min",0/10
same,24 Hr. Mortality LD0.1,mice [11],248 mg/kg
same,side effects,cardiac arrhythmias,exhibit undesirable side effects
same,LD50 at 24 h,[12],643 mg/kg
C=C[C@H]1C[N@@]2CC[C@H]1C[C@@H]2[C@@H](O)c1ccnc2ccc(OC)cc12 [Quinidine],Proportion of mice protected against fibrillation at LD0.1,ventricular fibrillation [7]; [14],10/10
same,Proportion of mice protected against fibrillation at LD0.1,ventricular fibrillation [7]; [15],9/9
same,Proportion of mice protected against fibrillation at LD0.1,ventricular fibrillation [7]; [16],9/9
same,Proportion of mice having ataxia just before CHCl3 challenge,"mice [8]; dose LD0.1, 20 min",0/10
same,Proportion of mice having ataxia just before CHCl3 challenge,"mice [8]; dose LD0.1, 40 min",2/10
same,death,"mice [8]; dose LD0.1, 40 min group",1 death
same,death,"mice [8]; dose LD0.1, 80 min group",1 death
same,side effects,cardiac arrhythmias,exhibit undesirable side effects
same,LD50 at 24 h,[12],382 mg/kg
same,24 Hr. Mortality LD0.1,mice [10],348 mg/kg
O=C1NC(=O)C(c2ccccc2)(c2ccccc2)N1 [diphenylhydantoin],side effects,cardiac arrhythmias,exhibit undesirable side effects
CC(C)NCC(O)COc1cccc2ccccc12 (centres unmarked) [propranolol],side effects,cardiac arrhythmias,exhibit undesirable side effects
